This assay is described as follows: Inhibition of Clostridium histolyticum collagenase using a linear regression program.

The text below walks through data of BindingDB's records for doi:10.1016/s0960-894x(00)00026-3 (Universit&#224, 2000).

As usually defined, the Ki is a measure of affinity in units of concentration, obtained from inhibition or displacement. High values mean a looser hold on the target, low ones a stronger hold on the target.

The molecule `CC(C(=O)NO)N(Cc1ccc([N+](=O)[O-])cc1)S(=O)(=O)c1cccc(NC(=O)OC(C)(C)C)c1` (stereo not given) [{3-[(1-Hydroxycarbamoyl-ethyl)-(4-nitro-benzyl)-sulfamoyl]-phenyl}-carbamic acid tert-butyl ester] displayed a Ki of 8 µM.
Take `CC(C(=O)O)N(Cc1ccc([N+](=O)[O-])cc1)S(C)(=O)=O` (stereo not given) [2-[Methanesulfonyl-(4-nitro-benzyl)-amino]-propionic acid]: the Ki came to 18 µM.
In turn, `Cc1ccc(S(=O)(=O)NC(=O)N(Cc2ccc([N+](=O)[O-])cc2)C(C)C(=O)O)cc1` (stereo not given) [2-[({[(4-methylphenyl)sulfonyl]amino}carbonyl)(4-nitrobenzyl)amino]propanoic acid] showed a Ki of 2.5 µM.
As for `CC(C(=O)NO)N(Cc1ccc([N+](=O)[O-])cc1)C(=O)Nc1cccc(Cl)c1` (stereo not given) [2-[3-(3-Chloro-phenyl)-1-(4-nitro-benzyl)-ureido]-N-hydroxy-propionamide], the figure is 14 µM; as for `CC(C(=O)NO)N(Cc1ccc([N+](=O)[O-])cc1)S(=O)(=O)C(F)(F)F` (stereo not given) [N-Hydroxy-2-[(4-nitro-benzyl)-trifluoromethanesulfonyl-amino]-propionamide], 75 µM; as for `CC(C(=O)NO)N(Cc1ccc([N+](=O)[O-])cc1)S(=O)(=O)c1ccc(Cl)cc1` (stereo not given) [2-[(4-Chloro-benzenesulfonyl)-(4-nitro-benzyl)-amino]-N-hydroxy-propionamide], 32 µM.
In the case of `Cc1ccccc1S(=O)(=O)NC(=O)N(Cc1ccc([N+](=O)[O-])cc1)C(C)C(=O)NO` (stereo not given) [N-hydroxy-2-[({[(2-methylphenyl)sulfonyl]amino}carbonyl)(4-nitrobenzyl)amino]propanamide], the affinity corresponds to a Ki of 8 µM.
`Cc1ccc(S(=O)(=O)N(Cc2ccc([N+](=O)[O-])cc2)C(C)C(=O)NO)cc1` (stereo not given) [N-Hydroxy-2-[(4-nitro-benzyl)-(toluene-4-sulfonyl)-amino]-propionamide] yielded a Ki of 36 µM.
In turn, `CC(C(=O)O)N(Cc1ccc([N+](=O)[O-])cc1)S(=O)(=O)c1cccc(C(F)(F)F)c1` (stereo not given) [2-[(4-Nitro-benzyl)-(3-trifluoromethyl-benzenesulfonyl)-amino]-propionic acid] registered an inhibition constant (Ki) of 0.3 µM.
Turning to `CC(=O)Nc1ccc(S(=O)(=O)N(Cc2ccc([N+](=O)[O-])cc2)C(C)C(=O)NO)cc1` (stereo not given) [2-[(4-Acetylamino-benzenesulfonyl)-(4-nitro-benzyl)-amino]-N-hydroxy-propionamide], affinity was put at a Ki of 11 µM.
On to `CC(C(=O)NO)N(Cc1ccc([N+](=O)[O-])cc1)C(=O)Nc1cccc2ccccc12` (stereo not given) [N-Hydroxy-2-[3-naphthalen-1-yl-1-(4-nitro-benzyl)-ureido]-propionamide], for which the Ki was found to be 10 µM.
With `CC(C(=O)NO)N(Cc1ccc([N+](=O)[O-])cc1)Sc1ccc([N+](=O)[O-])cc1[N+](=O)[O-]` (stereo not given) [2-[(2,4-Dinitro-phenylsulfanyl)-(4-nitro-benzyl)-amino]-N-hydroxy-propionamide] the figure was 9 µM; with `CC(C(=O)NO)N(Cc1ccc([N+](=O)[O-])cc1)S(=O)(=O)c1cc(Cl)ccc1Cl` (stereo not given) [2-[(2,5-Dichloro-benzenesulfonyl)-(4-nitro-benzyl)-amino]-N-hydroxy-propionamide], 13 µM; with `CC(C(=O)O)N(Cc1ccc([N+](=O)[O-])cc1)S(=O)(=O)C(F)(F)F` (stereo not given) [2-[(4-Nitro-benzyl)-trifluoromethanesulfonyl-amino]-propionic acid], 4.7 µM.
The molecule `Cc1ccc(S(=O)(=O)N(Cc2ccc([N+](=O)[O-])cc2)C(C)C(=O)O)cc1` (stereo not given) [2-[(4-Nitro-benzyl)-(toluene-4-sulfonyl)-amino]-propionic acid] returned a Ki of 13 µM.
Regarding `CC(C(=O)NO)N(Cc1ccc([N+](=O)[O-])cc1)S(=O)(=O)c1cccc([N+](=O)[O-])c1` (stereo not given) [N-Hydroxy-2-[(3-nitro-benzenesulfonyl)-(4-nitro-benzyl)-amino]-propionamide], the affinity corresponds to a Ki of 12 µM.
`CC(C(=O)O)N(Cc1ccc([N+](=O)[O-])cc1)S(=O)(=O)c1cccc2c(N(C)C)cccc12` (stereo not given) [2-[(5-Dimethylamino-naphthalene-1-sulfonyl)-(4-nitro-benzyl)-amino]-propionic acid] gave a Ki of 1.1 µM.
In the case of `CC(C(=O)NO)N(Cc1ccc([N+](=O)[O-])cc1)Sc1ccc([N+](=O)[O-])cc1` (stereo not given) [N-Hydroxy-2-[(4-nitro-benzyl)-(4-nitro-phenylsulfanyl)-amino]-propionamide], the affinity corresponds to a Ki of 11 µM.
With `CC(C(=O)O)N(Cc1ccc([N+](=O)[O-])cc1)S(=O)(=O)c1cccs1` (stereo not given) [2-[(4-Nitro-benzyl)-(thiophene-2-sulfonyl)-amino]-propionic acid] the figure was 2.1 µM; with `CC(C(=O)O)N(Cc1ccc([N+](=O)[O-])cc1)C(=O)Nc1ccc(F)cc1` (stereo not given) [2-[3-(4-Fluoro-phenyl)-1-(4-nitro-benzyl)-ureido]-propionic acid], 5.4 µM.
For the molecule `CC(C(=O)O)N(Cc1ccc([N+](=O)[O-])cc1)S(=O)(=O)c1ccc([N+](=O)[O-])c(Cl)c1` (stereo not given) [2-[(3-Chloro-4-nitro-benzenesulfonyl)-(4-nitro-benzyl)-amino]-propionic acid], affinity was put at a Ki of 3.3 µM.
As for `CC(C(=O)O)N(Cc1ccc([N+](=O)[O-])cc1)C(=O)Nc1ccc(F)cc1F` (stereo not given) [2-[3-(2,4-Difluoro-phenyl)-1-(4-nitro-benzyl)-ureido]-propionic acid], the figure is 6.2 µM; as for `CC(C(=O)NO)N(Cc1ccc([N+](=O)[O-])cc1)S(=O)(=O)c1cccs1` (stereo not given) [N-Hydroxy-2-[(4-nitro-benzyl)-(thiophene-2-sulfonyl)-amino]-propionamide], 11 µM; as for `CC(C(=O)O)N(Cc1ccc([N+](=O)[O-])cc1)S(=O)(=O)c1c(F)c(F)c(F)c(F)c1F` (stereo not given) [2-[(4-Nitro-benzyl)-pentafluorobenzenesulfonyl-amino]-propionic acid], 0.4 µM.
Take `CC(C(=O)O)N(Cc1ccc([N+](=O)[O-])cc1)S(=O)(=O)Cc1ccccc1` (stereo not given) [2-[(4-Nitro-benzyl)-phenylmethanesulfonyl-amino]-propionic acid]: the Ki is 15 µM.
`COc1ccc(S(=O)(=O)N(Cc2ccc([N+](=O)[O-])cc2)C(C)C(=O)O)cc1` (stereo not given) [2-[(4-Methoxy-benzenesulfonyl)-(4-nitro-benzyl)-amino]-propionic acid]: affinity was put at a Ki of 5.2 µM.
With `CC(C(=O)NO)N(Cc1ccc([N+](=O)[O-])cc1)S(=O)(=O)c1c(F)c(F)c(F)c(F)c1F` (stereo not given) [N-Hydroxy-2-[(4-nitro-benzyl)-pentafluorobenzenesulfonyl-amino]-propionamide], the Ki worked out at 5 µM.
For the molecule `CC(C(=O)O)N(Cc1ccc([N+](=O)[O-])cc1)S(=O)(=O)c1ccc2ccccc2c1` (stereo not given) [2-[(Naphthalene-2-sulfonyl)-(4-nitro-benzyl)-amino]-propionic acid], the Ki was determined as 1.3 µM.
`Cc1ccccc1S(=O)(=O)NC(=O)N(Cc1ccc([N+](=O)[O-])cc1)C(C)C(=O)O` (stereo not given) [2-[({[(2-methylphenyl)sulfonyl]amino}carbonyl)(4-nitrobenzyl)amino]propanoic acid]: affinity was put at a Ki of 3.1 µM.
Molecule `CC(C(=O)O)N(Cc1ccc([N+](=O)[O-])cc1)C(=O)Nc1ccc(Cl)cc1` (stereo not given) [2-[3-(4-Chloro-phenyl)-1-(4-nitro-benzyl)-ureido]-propionic acid] yielded a Ki of 6.5 µM.
